PubChem BioAssay (NCI)
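Grown in 96-well plates, cells were treated for 48 hours with each compound at five concentrations. Insufficient inhibition: endpoint recorded as highest concentration tested. The concentration for 50% growth inhibition is given as GI50. TGI denotes the concentration required for complete inhibition of growth.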

Columns and labels:
Assay in all cases: DTP human tumour cell line panel, 48 h
HCT-116 colon = tested on: HCT-116 colon
SF-539 CNS = tested on: SF-539 CNS
HCC-2998 colon = tested on: HCC-2998 colon
CAKI-1 renal = tested on: CAKI-1 renal
BT-549 breast = tested on: BT-549 breast
SK-MEL-5 melanoma = tested on: SK-MEL-5 melanoma
K-562 leukemia = tested on: K-562 leukemia
HOP-62 NSCLC = tested on: HOP-62 NSCLC
MALME-3M melanoma = tested on: MALME-3M melanoma
SNB-75 CNS = tested on: SNB-75 CNS
EKVX NSCLC = tested on: EKVX NSCLC
T-47D breast = tested on: T-47D breast
KM12 colon = tested on: KM12 colon
MDA-MB-435 = tested on: MDA-MB-435
786-0 renal = tested on: 786-0 renal
IGROV1 ovarian = tested on: IGROV1 ovarian
NCI-H226 lung = tested on: NCI-H226 lung
A498 renal = tested on: A498 renal
NCI-H460 lung = tested on: NCI-H460 lung
SF-268 CNS = tested on: SF-268 CNS
ACHN renal = tested on: ACHN renal
MDA-MB-231 breast = tested on: MDA-MB-231 breast
DU-145 prostate = tested on: DU-145 prostate
SN12C renal = tested on: SN12C renal
NCI-H522 lung = tested on: NCI-H522 lung
SR leukemia = tested on: SR leukemia
MCF7 breast = tested on: MCF7 breast
U251 CNS = tested on: U251 CNS
PC-3 prostate = tested on: PC-3 prostate
UACC-257 melanoma = tested on: UACC-257 melanoma
LOX IMVI melanoma = tested on: LOX IMVI melanoma
UACC-62 melanoma = tested on: UACC-62 melanoma
RXF 393 renal = tested on: RXF 393 renal
SK-MEL-28 melanoma = tested on: SK-MEL-28 melanoma
MOLT-4 leukemia = tested on: MOLT-4 leukemia
TK-10 renal = tested on: TK-10 renal
HS 578T breast = tested on: HS 578T breast
UO-31 renal = tested on: UO-31 renal
HOP-92 NSCLC = tested on: HOP-92 NSCLC
SF-295 CNS = tested on: SF-295 CNS
OVCAR-4 ovarian = tested on: OVCAR-4 ovarian
HCT-15 colon = tested on: HCT-15 colon
SK-OV-3 ovarian = tested on: SK-OV-3 ovarian
M14 melanoma = tested on: M14 melanoma
OVCAR-8 ovarian = tested on: OVCAR-8 ovarian
A549 NSCLC = tested on: A549 NSCLC
HT29 colon = tested on: HT29 colon
COLO 205 colon = tested on: COLO 205 colon
RPMI-8226 leukemia = tested on: RPMI-8226 leukemia
OVCAR-3 ovarian = tested on: OVCAR-3 ovarian
HL-60(TB) leukemia = tested on: HL-60(TB) leukemia
SNB-19 CNS = tested on: SNB-19 CNS
CCRF-CEM leukemia = tested on: CCRF-CEM leukemia
SW-620 colon = tested on: SW-620 colon

CC(=O)Nc1ccc(S(=O)(=O)NNC(=O)c2cccnc2Nc2ccc(Cl)cc2)cc1
GI50 (HCT-116 colon): 7.22 µM | TGI (HCT-116 colon): > 100 µM | GI50 (SF-539 CNS): 15.5 µM | TGI (SF-539 CNS): 75.5 µM | GI50 (HCC-2998 colon): 8.38 µM | GI50 (CAKI-1 renal): 9.18 µM | TGI (CAKI-1 renal): > 100 µM | GI50 (BT-549 breast): 25.2 µM | TGI (BT-549 breast): > 100 µM | GI50 (SK-MEL-5 melanoma): 5.68 µM | TGI (SK-MEL-5 melanoma): > 100 µM | GI50 (K-562 leukemia): 8.5 µM | TGI (K-562 leukemia): > 100 µM | GI50 (HOP-62 NSCLC): > 100 µM | TGI (HOP-62 NSCLC): > 100 µM | GI50 (MALME-3M melanoma): > 100 µM | TGI (MALME-3M melanoma): > 100 µM | GI50 (SNB-75 CNS): 5.54 µM | TGI (SNB-75 CNS): > 100 µM | GI50 (EKVX NSCLC): 48.9 µM | TGI (EKVX NSCLC): > 100 µM | GI50 (T-47D breast): 6.28 µM | TGI (T-47D breast): > 100 µM | GI50 (KM12 colon): 4.19 µM | TGI (KM12 colon): > 100 µM | GI50 (MDA-MB-435): 3.2 µM | TGI (MDA-MB-435): > 100 µM | GI50 (786-0 renal): 48 µM | TGI (786-0 renal): > 100 µM | GI50 (IGROV1 ovarian): 27.3 µM | TGI (IGROV1 ovarian): > 100 µM | GI50 (NCI-H226 lung): 42.3 µM | TGI (NCI-H226 lung): > 100 µM | GI50 (A498 renal): 18.4 µM | TGI (A498 renal): 76.1 µM | GI50 (NCI-H460 lung): 4.69 µM | TGI (NCI-H460 lung): > 100 µM | GI50 (SF-268 CNS): 22 µM | TGI (SF-268 CNS): > 100 µM | GI50 (ACHN renal): 52.2 µM | TGI (ACHN renal): > 100 µM | GI50 (MDA-MB-231 breast): 41.6 µM | TGI (MDA-MB-231 breast): > 100 µM | GI50 (DU-145 prostate): 34.3 µM | TGI (DU-145 prostate): > 100 µM | GI50 (SN12C renal): 59.3 µM | TGI (SN12C renal): > 100 µM | GI50 (NCI-H522 lung): 6.44 µM | TGI (NCI-H522 lung): > 100 µM | GI50 (SR leukemia): 6.35 µM | TGI (SR leukemia): > 100 µM | GI50 (MCF7 breast): 4.34 µM | TGI (MCF7 breast): > 100 µM | GI50 (U251 CNS): 23.8 µM | TGI (U251 CNS): > 100 µM | GI50 (PC-3 prostate): 29.2 µM | TGI (PC-3 prostate): > 100 µM | GI50 (UACC-257 melanoma): 89.4 µM | TGI (UACC-257 melanoma): > 100 µM | GI50 (LOX IMVI melanoma): 24 µM | TGI (LOX IMVI melanoma): > 100 µM | GI50 (UACC-62 melanoma): 8.85 µM | TGI (UACC-62 melanoma): > 100 µM | GI50 (RXF 393 renal): 37.3 µM | TGI (RXF 393 renal): > 100 µM | GI50 (SK-MEL-28 melanoma): 23.4 µM | TGI (SK-MEL-28 melanoma): > 100 µM | GI50 (MOLT-4 leukemia): 49.6 µM | TGI (MOLT-4 leukemia): > 100 µM | GI50 (TK-10 renal): 25.3 µM | TGI (TK-10 renal): > 100 µM | GI50 (HS 578T breast): 23.9 µM | TGI (HS 578T breast): > 100 µM | GI50 (UO-31 renal): 91.5 µM | TGI (UO-31 renal): > 100 µM | GI50 (HOP-92 NSCLC): > 100 µM | TGI (HOP-92 NSCLC): > 100 µM | GI50 (SF-295 CNS): 3.49 µM | TGI (SF-295 CNS): > 100 µM | GI50 (OVCAR-4 ovarian): 44.9 µM | TGI (OVCAR-4 ovarian): > 100 µM | GI50 (HCT-15 colon): 13.7 µM | TGI (HCT-15 colon): > 100 µM | GI50 (SK-OV-3 ovarian): 57.5 µM | TGI (SK-OV-3 ovarian): > 100 µM | GI50 (M14 melanoma): 11.5 µM | TGI (M14 melanoma): > 100 µM | GI50 (OVCAR-8 ovarian): 36.2 µM | TGI (OVCAR-8 ovarian): > 100 µM | GI50 (A549 NSCLC): 32.4 µM | TGI (A549 NSCLC): > 100 µM | GI50 (HT29 colon): 4 µM | TGI (HT29 colon): > 100 µM | GI50 (COLO 205 colon): 10.3 µM | TGI (COLO 205 colon): 57 µM | GI50 (RPMI-8226 leukemia): 28.6 µM | TGI (RPMI-8226 leukemia): > 100 µM | GI50 (OVCAR-3 ovarian): 3.73 µM | TGI (OVCAR-3 ovarian): > 100 µM | GI50 (HL-60(TB) leukemia): 9.67 µM | TGI (HL-60(TB) leukemia): > 100 µM | GI50 (SNB-19 CNS): 14.1 µM | TGI (SNB-19 CNS): > 100 µM | GI50 (CCRF-CEM leukemia): 21.3 µM | TGI (CCRF-CEM leukemia): > 100 µM | GI50 (SW-620 colon): 7.64 µM | TGI (SW-620 colon): > 100 µM
